Paper PMC7806715, “Discovery of small molecules targeting the tandem tudor domain of the epigenetic factor UHRF1 using fragment-based ligand discovery” (Scientific Reports, 2021)

Columns and labels:
[1] = target: T1, His6-TTD (UHRF1 tandem Tudor domain) vs. H3K9me3 peptide (Homo sapiens, UniProt Q96T88); test: TR-FRET assay: His6-TTD interaction with H3K9me3 peptide; assay type: biochemical; conditions: protein treated with PKA and ATP 1 h at 30 °C
T1 construct: Using the isolated His6-TTD (aa 123–283) we performed a thermal shift assay; made in house; host or cells: Rosetta (DE3) E. coli, pMCSG7
T1 sequence (Q96T88 123-283): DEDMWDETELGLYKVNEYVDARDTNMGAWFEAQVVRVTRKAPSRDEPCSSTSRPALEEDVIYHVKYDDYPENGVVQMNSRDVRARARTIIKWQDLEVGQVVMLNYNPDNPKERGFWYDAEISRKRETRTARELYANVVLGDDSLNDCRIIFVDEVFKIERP
Description: Finally, the fragment library was screened using a TR-FRET assay to find inhibitors that block the interaction of His6-TTD with H3K9me3 peptide. In this assay, an anti-His6-antibody labeled with Tb cryptate binds to His6-TTD while a streptavidin-d2 acceptor binds to a biotinylated histone H3K9me3 peptide. The binding between His6-TTD and H3K9me3 peptide was measured by the ratio of 665 nm fluorescence (from the d2 acceptor) to 620 nm fluorescence (from the Tb cryptate donor) (Fig. 1D).
(§1) The fragment screen was carried out on low volume 384-well white plates (Corning 4512) and the assay was performed at room temperature. […] After 1 h of incubation, the fluorescent signals at 665 nm and 620 nm of each plate were measured by the Tecan Infinite M1000 plate reader (excitation 340 nm, 60 µs lag time, and 500 µs integration time) and the TR-FRET signal was calculated by the ratio of 665 nm/620 nm fluorescent signal. For the fragment screen, on seven of the library plates there were 32-wells of DMSO control, while there were 8-wells of DMSO control in the last plate. […] The only difference was that the final concentration of His6-TTD-PHD was 200 nM, biotin-H3K9me3 peptide was 200 nM for the His6-TTD-PHD TR-FRET assay, while the final concentration of His6-UHRF1-FL was 200 nM and biotin-H3K9me3 peptide was 100 nM for the His6-UHRF1-FL TR-FRET assay. The buffer pH was 7.5 for the His6-TTD-PHD and His6-UHRF1-FL assays.

UHRF1-TTD = target: T2, UHRF1-TTD (Homo sapiens, UniProt Q96T88); test: Thermal shift assay (TSA) of TTD; assay type: binding; conditions: compound at 500 μM; untagged TTD, 150 mM NaCl; mean ± S.D., n=3
T2 construct: Using the isolated His6-TTD (aa 123–283) we performed a thermal shift assay; His6 (N, cleaved yes); made in house; host or cells: Rosetta (DE3) E. coli, pMCSG7
T2 sequence (Q96T88 123-283): T1 sequence (Q96T88 123-283)
Description: We used three different assays in parallel to screen a ~ 2300-fragment library to identify hits that bind to TTD or inhibit its activities. The first screening method was a direct binding assay, which generally serves as the basis for most fragment screening. Using the isolated His6-TTD (aa 123–283) we performed a thermal shift assay (TSA) to determine the change in melting temperature upon fragment binding. The change in protein melting temperature (ΔTm) caused by each fragment was calculated by comparison to the DMSO controls on the same plate.
The fragment screen was carried out on LightCycler 480 Multiwell Plates 384 (Roche). The TSA mix contains 0.15 mg/ml of His6-TTD, 10 × of SYPRO Orange dye (ThermoFisher) in the TSA buffer (50 mM sodium phosphate, pH = 7, 300 mM NaCl). During the screen, 5 µl of TSA mix was dispensed into each well, and 100 nl of chemical fragments stock (10 mM in DMSO) was added to each well by pintool using Tecan Freedom Evo liquid handler to make the final compound concentration 200 µM. After 1 h of incubation at room temperature, the increase of fluorescence at 580 nm (excitation 465 nm) during the 20–90 degree melting (0.04 °C/s) was measured by LightCycler 480 Instrument II (Roche). For the fragment screen, on seven of the library plates there were 32-wells of DMSO control, while there were 8-wells of DMSO control in the last plate. […] Using un-tagged TTD for TSA provide closer resemblance to the native state of TTD. The lower salt concentration (150 mM NaCl) also allowed better comparison across three different assays during the dose-dependent SAR studies as both AlphaScreen and TR-FRET assay also use buffers containing 150 mM NaCl.

[2] = target: T3, TTD-PHD S298D mutant vs. H3K9me3 peptide (Homo sapiens, UniProt Q96T88, S298D); test: TR-FRET assay: TTD-PHD S298D mutant binding to H3K9me3 peptide; assay type: biochemical; conditions: 2.5 mM 2,4-lutidine
T3 construct: made in house; host or cells: E. coli (host printed for TTD-PHD in general: Rosetta (DE3))
T3 sequence (Q96T88 123-366 S298D): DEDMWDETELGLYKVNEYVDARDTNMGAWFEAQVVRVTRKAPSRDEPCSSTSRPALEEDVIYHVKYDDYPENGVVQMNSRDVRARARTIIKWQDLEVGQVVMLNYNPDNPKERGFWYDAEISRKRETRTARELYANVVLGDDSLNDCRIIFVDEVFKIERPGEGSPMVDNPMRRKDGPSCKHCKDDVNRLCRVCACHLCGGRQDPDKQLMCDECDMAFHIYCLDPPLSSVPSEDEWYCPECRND
Description: as §1, with “μs” for “µs”, “His6-TTD-PHD was 200 nM, biotin-H3K9me3 peptide was 200 nM for the His6-TTD-PHD TR-FRET” left out

[3] = no reference given; cited from earlier work

Cc1ccnc(C)c1 [2,4-lutidine]
effect of PKA treatment of His6-TTD on inhibition of H3K9me3 peptide binding (in words) [1]: no effect
ΔTm at 500 µM (UHRF1-TTD): 2.04 ± 0.01 °C
inhibition of binding to H3K9me3 peptide [2]: 44.5%
pKa [3]: 6.99
